From US8258134B2, “Pyridazinone glucokinase activators” (Hoffmann-La Roche Inc., priority 2008, dated 2012)

Target: T1, Recombinant human liver GK1 (GST-GK) (Homo sapiens, UniProt P35557)
T1 construct: made in house; host or cells: E. coli
T1 sequence (P35557 1-466 isoform P35557-2): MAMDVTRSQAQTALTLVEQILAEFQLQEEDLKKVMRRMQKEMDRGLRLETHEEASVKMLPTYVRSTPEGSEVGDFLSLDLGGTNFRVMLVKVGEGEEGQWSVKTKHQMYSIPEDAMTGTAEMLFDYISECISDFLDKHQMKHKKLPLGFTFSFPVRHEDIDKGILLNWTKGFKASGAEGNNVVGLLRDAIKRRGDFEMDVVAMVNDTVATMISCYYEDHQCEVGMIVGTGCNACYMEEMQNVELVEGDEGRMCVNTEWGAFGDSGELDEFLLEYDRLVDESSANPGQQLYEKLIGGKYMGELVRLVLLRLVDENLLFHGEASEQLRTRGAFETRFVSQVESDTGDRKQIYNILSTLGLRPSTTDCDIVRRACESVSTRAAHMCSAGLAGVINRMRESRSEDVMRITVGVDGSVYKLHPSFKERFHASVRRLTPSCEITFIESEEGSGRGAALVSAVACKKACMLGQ
Assay: Glucokinase in vitro assay (G6PDH-coupled NADH generation, OD340)
Format: biochemical
Details: 5 mM D-glucose, 30° C., pH 7.1, 10% DMSO
Summary of the method: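 Activation readout is SC1.5, the activator concentration raising GK rate (OD340/min) 50% above 10% DMSO controls. The coupled reaction used GST-GK1 from E. coli, 5 mM glucose, 1 mM ATP, 1.8 mM NAD and 25 mM Hepes pH 7.1 at 30° C. Enzyme was added after a 10 min compound pre-incubation.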

SC1.5 average (concentration of activator that produced a 50% increase in the activity of GK) [µM]	SMILES
0.245	Cc1ccccc1Oc1cnn([C@H](CC2CCCC2)C(=O)Nc2ccc(C(=O)O)cn2)c(=O)c1 [Example 74B, 6-[(R)-3-Cyclopentyl-2-(6-oxo-4-o-tolyloxy-6H-pyridazin-1-yl)-propionylamino]-nicotinic acid]
2.308	CC(C)CC(C(=O)Nc1ccn(C)n1)n1ncc(Oc2cccc3c2ccn3C[C@@H](O)CO)cc1=O (stereo partly drawn) [Example 113, 2-{4-[1-((R)-2,3-Dihydroxy-propyl)-1H-indol-4-yloxy]-6-oxo-6H-pyridazin-1-yl}-4-methyl-pentanoic acid (1-methyl-1H-pyrazol-3-yl)-amide]
0.811	CC(C)(O)Cn1ccc(NC(=O)C(CC2CCCCC2)n2ncc(Oc3ccc(OC(F)(F)F)cc3Cl)cc2=O)n1 (centres unmarked) [Example 119, 2-[4-(2-Chloro-4-trifluoromethoxy-phenoxy)-6-oxo-6H-pyridazin-1-yl]-3-cyclohexyl-N-[1-(2-hydroxy-2-methyl-propyl)-1H-pyrazol-3-yl]-propionamide]
0.098	O=C(O)c1ccc(NC(=O)C(CC2CCCC2)n2ncc(Oc3cccc4c3CCCC4)cc2=O)nc1 (centres unmarked) [Example 72, 6-{3-Cyclopentyl-2-[6-oxo-4-(5,6,7,8-tetrahydro-naphthalen-1-yloxy)-6H-pyridazin-1-yl]-propionylamino}-nicotinic acid]

More lines, now with the values behind:

SMILES	SC1.5 average (concentration of activator that produced a 50% increase in the activity of GK) [µM]
CC(C)(O)Cn1ccc(NC(=O)[C@@H](CC2CCCC2)n2ncc(Oc3cc(F)ccc3F)cc2=O)n1 [Example 33B, (R)-3-Cyclopentyl-2-[4-(2,5-difluoro-phenoxy)-6-oxo-6H-pyridazin-1-yl]-N-[1-(2-hydroxy-2-methyl-propyl)-1H-pyrazol-3-yl]-propionamide]	8.849
COC(=O)c1ccc(NC(=O)C(CC2CCCC2)n2ncc(Oc3c(F)cccc3F)cc2=O)nc1 (centres unmarked) [Example 68, 6-{3-Cyclopentyl-2-[4-(2,6-difluoro-phenoxy)-6-oxo-6H-pyridazin-1-yl]-propionylamino}-nicotinic acid methyl ester]	0.013
CC(C)(O)Cn1ccc(NC(=O)[C@H](CC2CCOCC2)n2ncc(Oc3c(F)cccc3F)cc2=O)n1 [Example 43A, (S)-2-[4-(2,6-Difluoro-phenoxy)-6-oxo-6H-pyridazin-1-yl]-N-[1-(2-hydroxy-2-methyl-propyl)-1H-pyrazol-3-yl]-3-(tetrahydro-pyran-4-yl)-propionamide]	0.148
CC(C)(O)Cn1ccc(NC(=O)[C@@H](CC2CCCCC2)n2ncc(Oc3c(F)cccc3F)cc2=O)n1 [Example 51B, (R)-3-Cyclohexyl-2-[4-(2,6-difluoro-phenoxy)-6-oxo-6H-pyridazin-1-yl]-N-[1-(2-hydroxy-2-methyl-propyl)-1H-pyrazol-3-yl]-propionamide]	0.838
CC(C)CC(C(=O)Nc1ccn(C[C@@H](O)CO)n1)n1ncc(Oc2c(F)cccc2F)cc1=O (stereo partly drawn) [Example 61, 2-[4-(2,6-Difluoro-phenoxy)-6-oxo-6H-pyridazin-1-yl]-4-methyl-pentanoic acid [1-((R)-2,3-dihydroxy-propyl)-1H-pyrazol-3-yl]-amide]	0.383
COC(=O)c1ccc(NC(=O)[C@@H](CC2CCCC2)n2ncc(Oc3c(F)cccc3F)cc2=O)nc1 [Example 68B, 6-{(R)-3-Cyclopentyl-2-[4-(2,6-difluoro-phenoxy)-6-oxo-6H-pyridazin-1-yl]-propionylamino}-nicotinic acid methyl ester]	0.597
CC(C)(O)Cn1ccc(NC(=O)C(CC2CCCC2)n2ncc(Oc3cccc4ccccc34)cc2=O)n1 (centres unmarked) [Example 20]	0.058
